Experimental data as given in patent US4387102A, “4-(N-(3',4'-Methylenedioxybenzylidene)-aminomethyl)cyclohex ane-1-carboxylic acid and derivatives thereof and pharmaceutical composition thereof” (Kureha Kagaku Kogyo Kabushiki Kaisha, priority 1980, dated 1983).

Tests used:
[1] = system: polymorphonuclear leukocytes; assay: Inhibition of migration of polymorphonuclear leukocytes to the inflammatory region (Granuloma-CMC-Pouch method); format: in vivo, rat; conditions: single oral dose, male Donryu rats, present compound 100 mg/kg, indomethacin 10 mg/kg (footnote)
Experimental: Tests for inhibition of migration of polymorphonuclear leukocytes to the inflammatory region due to sodium 4-[N-(3',4'-methylenedioxybenzylidene)aminomethyl]cyclohexane-1-carboxylate were carried out following the method of Granuloma-CMC-Pouch (refer to Ishikawa et al. J. Pharmaceut. Soc. Jap., Vol. 88, page 1472, 1968).
Namely, after cutting the hair on the back of male rats (Donryu, body weight: 150 g), 5 ml of air was injected subcutaneously into the hair-cut region and further, 5 ml of aqueous 2% (W/V) solution of sodium carboxymethyl cellulose (CMC) at 37° C. was injected.
Specimens of the liquid (0.5 ml, each) effused into the pouch were collected at 3, 6 and 24 hours after 2% CMC solution were injected respectively and then the number of polymorphonuclear leukocytes in the specimen was counted after staining to determine the rate of inhibition of migration of the polymorpholeukocyte as compared to the number of the polymorpholeukocytes in the specimen collected from control animal to which the aqueous CMC solution was injected after air injection.
In this test, sodium 4-[N-(3',4'-methylenedioxybenzylidene)aminomethyl]cyclohexane-1-carboxylate was orally administered as a solution in aqueous physiological saline solution at a dose of 100 mg/kg at the time of injecting the solution of CMC, and as a control, […] at the time of injecting the solution of CMC.

female JCL-ICR mice = assay: Acute oral toxicity test; format: in vivo, mouse; conditions: 3000 mg/kg, female JCL-ICR mice of five weeks
Experimental: (5-2) Acute oral toxicity test were carried out by orally administering aqueous solutions of sodium 4-[N-(3',4'-methylenedioxybenzylidene)aminomethyl]cyclohexane-1-carboxylate to groups of female JCL-ICR mice of five weeks after birth.

rabbit's platelets = assay: Inhibition of blood platelet aggregation induced by sodium arachidonate (platelet aggregation tracer PAT 4A); format: cell-based; conditions: 400 micromols sodium arachidonate
Experimental: (5-1) Test for inhibition of platelet aggregation was carried out while using rabbit's platelets, an aqueous physiological saline solution of sodium 4-[N-([…]-methylenedioxybenzylidene)aminomethyl]cyclohexane-1-carboxylate and 400 micromols of sodium arachidonate as the aggregation agent in a platelet aggregation tracer PAT 4A (made by Niko Bioscience Company, Japan) as the testing apparatus.

[2] = 3 hours of injection of CMC, control 3.5 × 10^3
[3] = 6 hours of injection of CMC, control 5.9 × 10^3
[4] = 24 hours of injection of CMC, control 14.9 × 10^3

SMILES | R.I. (inhibitory rate of migration of polymorphonuclear leukocytes into the pouch as compared to control) ([1]; 3 hours of injection of CMC) | Number of polymorphonuclear leukocytes [1, 2] | R.I. (inhibitory rate of migration of polymorphonuclear leukocytes into the pouch as compared to control) ([1]; 6 hours of injection of CMC) | Number of polymorphonuclear leukocytes [1, 3] | R.I. (inhibitory rate of migration of polymorphonuclear leukocytes into the pouch as compared to control) ([1]; 24 hours of injection of CMC) | Number of polymorphonuclear leukocytes [1, 4] | abnormality in acute oral toxicity test (female JCL-ICR mice) | percent of inhibition of the aggregation of the platelets by sodium arachidonate (rabbit's platelets; 500 micromols compound) | percent of inhibition of the aggregation of the platelets by sodium arachidonate (rabbit's platelets; 1000 micromols compound) | percent of inhibition of the aggregation of the platelets by sodium arachidonate (rabbit's platelets; 1500 micromols compound)
COc1ccc2c(c1)c(CC(=O)O)c(C)n2C(=O)c1ccc(Cl)cc1 [Indomethacin, indomethacin, reference compound] | 34% | 2.3 × 10^3 Number/mm^3 | 31% | 4.1 × 10^3 Number/mm^3 | 28% | 10.8 × 10^3 Number/mm^3 | – | – | – | –
O=C([O-])C1CCC(CN=Cc2ccc3c(c2)OCO3)CC1.[Na+] (stereo not shown) [Present compound, sodium 4-[N-(3',4'-methylenedioxybenzylidene)aminomethyl]cyclohexane-1-carboxylate] | 46% | 1.9 × 10^3 Number/mm^3 | 54% | 2.7 × 10^3 Number/mm^3 | 32% | 10.1 × 10^3 Number/mm^3 | no abnormality was found | 30% | 75% | 100%
